{
  "source": "patent US20100029675A1",
  "about": "“Pyrimidine-2, 4-diamine JAK2 Kinase inhibiting anti-inflammation use” (priority 2008, published 2010)",
  "key": {"[1]": {"tested_on": "JAK2-dependent phosphorylation of STAT3 (phospho-Y705) in AGS gastric cancer cell line", "assay": "Western blot of STAT3 phosphorylation in AGS cells", "type": "cell-based", "settings": "24 hours, 5-10 uM, densitometry", "method": "(§1) In order to detect specific inhibition of JAK2 enzyme in cell culture, Western blot assays may also be performed. For this, cells which have been treated with a potential JAK2 inhibitor are lysed with a buffer specific for the isolation and preservation of proteins (1% Nonidet P-40, 120 mM NaCl, 30 mM Tris pH 7.4, 1:100 Protease Inhibitor Cocktail III [Calbiochem/EMD Biosciences], 1:100 Phosphatase Inhibitor Cocktail 1 [Sigma-Aldrich, Saint Louis, Mo.], 1:100 Phosphatase Inhibitor Cocktail 2 [Sigma-Aldrich, Saint Louis, Mo.]). The protein concentration in these lysates is then quantified using the BCA Protein Assay Kit (Pierce). Known amounts of protein, e.g. 50 ug, are loaded onto 10% SDS-polyacrylamide gels and are subjected to reducing, denaturing SDS-PAGE. […]\n(§2) In this example, Compound 1-4 is shown to reduce the JAK2-dependent phosphorylation of STAT3 and STAT5 in the AGS gastric cancer cell line. […] Following incubation, cells were lysed and total protein isolated and quantified. […] Densitometry analysis was performed in order to quantify the amount of STAT3 and STAT5 phosphorylation in these treated cells. Phospho-STAT3 and phospho-STAT5 were compared to total STAT3 and STAT5 and the proportion of STAT phosphorylation relative to untreated controls was determined."}, "[2]": {"tested_on": "JAK2-dependent phosphorylation of STAT5 (phospho-Y694) in AGS gastric cancer cell line", "assay": "Western blot of STAT5 phosphorylation in AGS cells", "type": "cell-based", "settings": "24 hours, 5-10 uM, densitometry", "method": "as §1, §2"}},
  "data": [
    {"smiles": "CN1CCN(c2ccc(Nc3nccc(Nc4ccc(F)c(Cl)c4)n3)cc2)CC1", "note": "[Compound 1-4, N4-(3-chloro-4-fluorophenyl)-N2-(4-(4-methylpiperazin-1-yl)phenyl)pyrimidine-2,4-diamine]", "values": [
      {"measurement": "STAT3 phosphorylation relative to untreated controls", "setting": "[1]", "result": "reduce"},
      {"measurement": "STAT5 phosphorylation relative to untreated controls", "setting": "[2]", "result": "reduce"}
    ]}
  ]
}
